Assay results taken from the NIST ThermoML archive (doi:10.1021/je700492k).
Numbers after ± are expanded uncertainties.

Conditions: 101.33 kPa, Liquid, Pycnometric method

mass density (298.15 K): 972.1 ± 0.9 kg/m3
mass density (313.15 K): 954 ± 0.9 kg/m3
mass density (328.15 K): 939.3 ± 0.8 kg/m3
Compound: CC(=O)CC(C)=O [2,4-pentanedione]
